Test results as given in US6852744B2, “Pyrrolidine derivatives and their use as chymase inhibitor” (Dainippon Pharmaceutical Co., Ltd., priority 2000, dated 2005).
Changes are numbered by the printed parent chain. Where a name gives a salt, the structure may show the parent alone.

Key:
[1] = in vivo; conditions: male, ddy, mouse, po
[2] = target: T1, human chymase (Homo sapiens, UniProt P23946); assay: Human chymase inhibitory activity (in vitro, angiotensin I substrate); type: biochemical; conditions: for IC50: recombinant human chymase (COS7 cells), substrate angiotensin I, 37° C., read-out: Human Chymase Inhibition (IC50:nM)
T1 construct: made in house; host or cells: COS7 cells (transient transfection)
T1 sequence (P23946 22-247): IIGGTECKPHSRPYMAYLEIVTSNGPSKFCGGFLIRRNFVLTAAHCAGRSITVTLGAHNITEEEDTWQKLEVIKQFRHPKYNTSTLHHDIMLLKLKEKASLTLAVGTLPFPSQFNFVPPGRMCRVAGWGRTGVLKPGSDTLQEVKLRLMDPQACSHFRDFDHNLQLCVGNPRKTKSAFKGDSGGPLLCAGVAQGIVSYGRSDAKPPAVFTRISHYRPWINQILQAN
Description: (§1) The inhibitory activities of the compounds on monkey chymase and human chymase were tested in vitro. The test compounds are as shown by Compound Nos. in Tables 13 and 14.
Preparation of Human Chymase
Human chymase was produced in mammalian cells using a recombinant DNA technique.
Construction of a human prochymase expression plasmid was performed in the following manner. Briefly, single stranded cDNA was synthesized from human heart mRNA (Clontech Laboratories, Inc.). Polymerase chain reaction amplification was carried out using the cDNA as a template and appropriate pairs of primers. The primer sequences were determined based on the human preprochymase. The amplified product was cloned into the plasmid pUC18, and then recloned into the plasmid pBluescript II KS(+) (Stratagene). Finally, the DNA fragment carrying the entire protein-coding sequences of the human preprochymase was inserted to a transient expression vector by the usual method to yield the human prochymase expression plasmid.
Transfection of COS7 cells with the human prochymase expression plasmid was carried out using the FuGene™ 6 transfection reagent (Boehringer Mannheim). About 7 hours after exposure to DNA, the culture medium was changed to a serum-free one. The culture supernatant was collected after 2 days culture.
Human prochymase was purified from the culture supernatant using a heparin actigel column as described above in the preparation of monkey chymase.
In order to produce active chymase, the human prochymase was incubated with dipeptidylpeptidase I (Sigma). The resultant active human chymase was purified using a heparin actigel column as described above. The active human chymase was eluted with 0.01 mol/1000 ml sodium phosphate buffer pH 7.4 containing 2 mol/1000 ml NaCl.
(§2) Measurement of Chymase Inhibitory Activity (In Vitro Assay)
(§3) The chymase inhibitory activities of compounds I-A of this invention were measured according to the following method. Briefly, the purified monkey or human chymase was diluted to an appropriate concentration with 0.01 mol/1000 ml sodium phosphate buffer, pH 7.4, containing 2 mol/1000 ml KCl and 0.1% Nonidet P-40 and used as enzyme solution. Angiotensin I (Peptide Institute Inc.) was diluted with water to 5 mg/ml and used as substrate solution. Test compounds were serially diluted with 10% DMSO. […] After pre-incubation of the mixture at 37° C., 20 μl of the substrate solution was added to the enzyme-test compound mixture and the new mixture was incubated at 37° C. Fifty μl of 30% trichloroacetic acid solution was finally added to stop the enzymatic reaction.
The amount of L-His-L-Leu was measured as angiotensin II produced by the enzymatic reaction. Briefly, 10 μl of the reaction mixture and 10 μl of 1% orthophthalaldehyde solution dissolved in methanol were mixed with 100 μl of 2 mol/1000 ml NaOH and kept at room temperature. The reaction was then stopped by adding 10 μl of 6 mol/1000 ml HCl. Finally, the fluorescence induced by the reaction was measured using in a photometer with an excitation wavelength of 355 nm and an emission wavelength of 460 nm. Chymase inhibitory activities of test compounds were expressed as 50% inhibitory concentration (IC50).

[3] = target: T2, monkey chymase (Macaca fascicularis, UniProt P56435); assay: Monkey chymase inhibitory activity (in vitro, angiotensin I substrate); type: biochemical; conditions: for IC50: chymase purified from monkey cheek pouch and stomach, substrate angiotensin I, 37° C., read-out: Monkey Chymase Inhibition (IC50:nM)
T2 construct: chymase was extracted from homogenized monkey cheek pouch and stomach; from tissue; host or cells: monkey cheek pouch and stomach
T2 sequence (P56435 22-247): T1 sequence (P23946 22-247) with F29S, A44V, E63K, D159Y, S201L, Q221K
Description: as §1
Preparation of Monkey Chymase
Chymase was purified from monkey cheek pouch and stomach in the following manner.
Briefly, chymase was extracted from homogenized monkey cheek pouch and stomach with 0.01 mol/1000 ml sodium phosphate buffer, pH 7.4, containing 2 mol/1000 ml KCl and 0.1% Nonidet P-40 (Amresco Inc.). The solution containing chymase was applied to a heparin actigel column, and the chymase-rich fractions were collected.
as §2
as §3, with “Briefly,” for “The chymase inhibitory activities of compounds I-A of this invention were measured according to the following method. Briefly,”
The amount of L-His-L-Leu was measured as angiotensin II produced by the enzymatic reaction. Briefly, 10 μl of the reaction mixture and 10 μl of 1% orthophthalaldehyde solution dissolved in methanol were mixed with 100 μl of 2 mol/1000 ml NaOH and kept at room temperature. The reaction was then stopped by adding 10 μl of 6 mol/1000 ml HCl.

Row | concentration at 1 h [1] | IC50 [2] | IC50 [3] | inhibitory activity on human chymase (in words) ([2]; summary of Table 14) | inhibitory activity on monkey chymase (in words) ([3]; summary of Table 13) | SMILES
1 | 2700 ng/mL | 83 nM | 54 nM |  |  | Cc1noc(C)c1C(=O)N[C@H](C(=O)N1CCC[C@H]1C(=O)N[C@@H](Cc1ccc2ccccc2c1)C(=O)C(F)(F)F)C(C)C [I-A-2, N-[(1S)-2-((2S)-2-{N-[(1S)-3,3,3-trifluoro-1-(2-naphthylmethyl)-2-oxopropyl]carbamoyl}pyrrolidinyl)-1-(methylethyl)-2-oxoethyl]-(3,5-dimethylisoxazol-4-yl)carboxamide]
2 | 320 ng/mL | 50 nM | 9.3 nM |  |  | CC[C@H](NC(=O)c1c(C)noc1C)C(=O)N1CCC[C@H]1C(=O)N[C@@H](Cc1csc2ccccc12)C(=O)C(F)(F)F [I-A-3, N-[(1S)-2-((2S)-2-{N-[(1S)-1-(benzo[b]thiophen-3-ylmethyl)-3,3,3-trifluoro-2-oxopropyl]carbamoyl}pyrrolidinyl)-1-ethyl-2-oxoethyl](3,5-dimethylisoxazol-4-yl)carboxamide]
3 | 940 ng/mL | 57 nM | 12 nM |  |  | CC[C@@H](C)[C@H](NC(=O)c1c(C)noc1C)C(=O)N1CCC[C@H]1C(=O)N[C@@H](Cc1csc2ccccc12)C(=O)C(F)(F)F [I-A-4, N-[1-((1R)-1-methylpropyl)(1S)-2-((2S)-2-{N-[(1S)-1-(benzo[b]thiophen-3-ylmethyl)-3,3,3-trifluoro-2-oxopropyl]carbamoyl}pyrrolidinyl)-2-oxoethyl](3,5-dimethylisoxazol-4-yl)carboxamide]
4 | 630 ng/mL | 83 nM | 16 nM |  |  | Cc1noc(C)c1C(=O)N[C@@H](C)C(=O)N1CCC[C@H]1C(=O)N[C@@H](Cc1csc2ccccc12)C(=O)C(F)(F)F [I-A-5, N-[(1S)-2-((2S)-2-{N-[(1S)-1-(benzo[b]thiophen-3-ylmethyl)-3,3,3-trifluoro-2-oxopropyl]carbamoyl}pyrrolidinyl)-1-methyl-2-oxoethyl](3,5-dimethylisoxazol-4-yl)carboxamide]
5 |  | 57 nM | 31 nM |  |  | CC(C)[C@H](NC(=O)c1ccc2c(c1)no[n+]2[O-])C(=O)N1CCC[C@H]1C(=O)NC(Cc1csc2ccccc12)C(=O)C(F)(F)F (stereo partly shown) [I-A-52]
6 |  | 69 nM | 31 nM |  |  | CC(C)[C@H](NC(=O)c1ccc2c(c1)no[n+]2[O-])C(=O)N1CCC[C@H]1C(=O)NC(Cc1ccc2ccccc2c1)C(=O)C(F)(F)F (stereo partly shown) [I-A-53]
7 |  | 90 nM | 42 nM |  |  | CC(C)[C@H](NC(=O)c1ccc2c(c1)no[n+]2[O-])C(=O)N1CCC[C@H]1C(=O)NC(Cc1ccccc1)C(=O)C(F)(F)F (stereo partly shown) [I-A-54]
8 |  | 92 nM | 150 nM |  |  | CC(C)[C@H](NC(=O)c1ccoc1)C(=O)N1CCC[C@H]1C(=O)NC(Cc1ccc2ccccc2c1)C(=O)C(F)(F)F (stereo partly shown) [I-A-63]
9 |  | 96 nM | 73 nM |  |  | CC(C)[C@H](NC(=O)c1ccoc1)C(=O)N1CCC[C@H]1C(=O)NC(Cc1csc2ccccc12)C(=O)C(F)(F)F (stereo partly shown) [I-A-64]
10 |  |  | 280 nM |  |  | CC(C)[C@H](NC(=O)Cn1ccc(=O)n(CC(=O)OC(C)(C)C)c1=O)C(=O)N1CCC[C@H]1C(=O)NC(Cc1ccc(Cl)cc1)C(=O)C(F)(F)F (stereo partly shown) [I-A-90]
11 |  |  | 150 nM |  |  | O=C(O)Cn1c(=O)ccn(CC(=O)N[C@@H](CC2CCCCC2)C(=O)N2CCC[C@H]2C(=O)NC(Cc2ccccc2)C(=O)C(F)(F)F)c1=O (stereo partly shown) [I-A-91]
12 |  |  | 860 nM |  |  | CC(C)(C)OC(=O)Cn1c(=O)ccn(CC(=O)N[C@@H](CC2CCCCC2)C(=O)N2CCC[C@H]2C(=O)NC(Cc2ccccc2)C(=O)C(F)(F)F)c1=O (stereo partly shown) [I-A-92]
13 |  |  | 200 nM |  |  | Cc1cn(CC(=O)N[C@H](C(=O)N2CCC[C@H]2C(=O)NC(Cc2cc3ccccc3s2)C(=O)C(F)(F)F)C(C)C)c(=O)n(Cc2ccccc2)c1=O (stereo partly shown) [I-A-93]
14 |  |  | 15 nM |  |  | Cc1nsc(C)c1C(=O)N[C@H](C(=O)N1CCC[C@H]1C(=O)NC(Cc1cc2ccccc2s1)C(=O)C(F)(F)F)C(C)C (stereo partly shown) [I-A-94]
15 |  | 95 nM | 47 nM |  |  | CC(C)[C@H](NC(=O)c1ccc2nonc2c1)C(=O)N1CCC[C@H]1C(=O)NC(Cc1cc2ccccc2s1)C(=O)C(F)(F)F (stereo partly shown) [I-A-95]
16 |  | 77 nM | 50 nM |  |  | Cc1nnsc1C(=O)N[C@H](C(=O)N1CCC[C@H]1C(=O)NC(Cc1ccccc1)C(=O)C(F)(F)F)C(C)C (stereo partly shown) [I-A-96]
17 |  | 75 nM | 59 nM |  |  | Cc1nnsc1C(=O)N[C@H](C(=O)N1CCC[C@H]1C(=O)NC(Cc1cc2ccccc2s1)C(=O)C(F)(F)F)C(C)C (stereo partly shown) [I-A-97]
18 |  |  | 63 nM |  |  | Cc1noc(C)c1C(=O)N[C@H](C(=O)N1CCC[C@H]1C(=O)NC(Cc1cc2ccccc2s1)C(=O)C(F)(F)F)C(C)C (stereo partly shown) [I-A-98]
19 |  |  | 83 nM |  |  | Cc1snnc1C(=O)N[C@H](C(=O)N1CCC[C@H]1C(=O)NC(Cc1cc2ccccc2s1)C(=O)C(F)(F)F)C(C)C (stereo partly shown) [I-A-99]
20 |  |  | 260 nM |  |  | Cc1nsc(C(=O)N[C@H](C(=O)N2CCC[C@H]2C(=O)NC(Cc2cc3ccccc3s2)C(=O)C(F)(F)F)C(C)C)n1 (stereo partly shown) [I-A-100]
21 |  | 1200 nM | 1600 nM | very low chymase inhibitory activity | very low chymase inhibitory activity | CNC1CCN(C(=O)N[C@H](C(=O)N2CCC[C@H]2C(=O)N[C@@H](Cc2ccccc2)C(=O)C(F)(F)F)C(C)C)CC1 [Reference compound (A), [(2S)-1-((2S)-3-methyl-2-{[4-(methylamino)piperidyl]carbonylamino}butanoyl)pyrrolidin-2-yl]-N-[(1S)-3,3,3-trifluoro-2-oxo-1-benzylpropyl]carboxamide hydrochloride, reference compound]
